Results on two molecules are retold here after patent publication US12070458B2, “Therapeutic agent composition and method of use, for treatment of mild congnitive impairment, depression, and psychological disorders” (priority 2018, dated 2024).

Residues, ends and D or L forms follow the SMILES beside them.

Assay [1] concerns 6-OHDA induced nigral-striatal lesion. The assay is described as follows: 6-OHDA induced nigral-striatal lesion, apomorphine-induced contralateral rotations. As to conditions: 1 mg (mg/kg) i.p. 2 hours post lesion; 7 days post-lesion, apomorphine 0.1 mg/kg; n=5; vehicle 290±18 or 292±21. The class given is in vivo, Wistar rats. As for the experimental part:
Twenty male Wistar rats (280-310 g) were used. After exposing the skull, 6-OHDA (8 μg in a base of 2 μl 0.9% saline containing 1% ascorbic acid) was administered into the right medial forebrain bundle (MFB) using co-ordinates AP +4.7 mm, R 1.6 mmv −8 mm under 3% halothane anaesthesia. 6-OHDA was injected through a 25G needle connected via a polyethylene catheter to a 100 μl Hamilton syringe. The 6-OHDA was infused by a microdialysis infusion pump at a rate of 0.5 μl/min. The needle was left in the brain for a further 3 minutes before being slowly withdrawn. The skin was sutured with 2.0 silk and the rats were allowed to recover from anaesthesia. The rats were housed in a holding room with free access to food and water at all times except during behavioural testing.
Cyclic PG was dissolved in saline. Four different doses of cPG (0, 0.1, 0.5, 1 mg/kg, Bachem) were administered intraperitoneally 2 hours post lesion.
At 7 days post-lesion, rats were injected with 0.1 mg/kg apomorphine and the number of contralateral rotations/hour was recorded and calculated using a computerised Rotameter (St Diego Instruments). Experimenter was blinded from the treatment groups.
Cyclic(tri(prolylglycyl)) was dissolved in saline solution. Four different doses of Cyclic(tri(prolylglycyl)) (0, 0.1, 0.5, 1 mg/kg, NeuroBiomed) were administered intraperitoneally 2 hours post lesion.
Cyclic Glycyl-2-Methyl Proline (cGMeP) was dissolved in saline solution. Four different doses of cGMeP (0, 0.1, 0.5, 1 mg/kg, NeuroBiomed) were administered intraperitoneally 2 hours post lesion.

Assay [2] concerns damaged nerve tissue (crushed spinal cord). The assay is described as follows: Regeneration of damaged nerve tissue after crushing the spinal cord. The class given is in vivo, Wistar rats. The note with it: 10 mM in saline, 0.75 ml four times a day at the site of injury for 14 days, versus saline. The protocol:
Postnatal day 4 Wistar 10 rats were used for the study. The rats were divided in 2 groups: one group of 5 animals treated with drug solution, and the other group of animals treated with 0.9% sodium chloride (saline) solution. A drug solution containing cPG (from Bachem, 10 mM solution prepared in 0.9% sodium chloride (saline) solution) was administered four times a day in volumes of 0.75 ml to thoroughly flood the site of injury.
Two days after crushing the spinal cord, the dura of a rat was opened and a polyethylene tube was sutured to the vertebral spines and adjacent soft tissues so that the opening in one end lay directly over the injured part of the spinal cord. The tubing was brought through a subcutaneous tunnel so that its other end emerged at the base of the skull. A syringe adapter was attached to the external opening for injecting the drugs. All experiments were on a double-blind basis on 2 groups: one group of 5 animals treated with drug solution of 10 mM in saline solution, and the other group of 5 animals treated with 0.9% sodium chloride (saline) solution. Treatment of every animal was continued for 14 days, after which the animals were killed and histological sections prepared.
Postnatal day 4 Wistar 10 rats were used for the study. […]

`O=C1NCC(=O)N2CCC[C@H]2C(=O)NCC(=O)N2CCC[C@H]2C(=O)NCC(=O)N2CCCC12` (stereo partly drawn) [c(PG)3, cyclic (glycyl-L-prolylglycyl-L-prolylglycyl-L-prolyl)] (HELM PEPTIDE1{G.P.G.P.G.[O=C(C1CCCN1[*:1])[*:2]]}$PEPTIDE1,PEPTIDE1,1:R1-6:R2$$$V2.0): in assay [1], the “number of contralateral rotations/hour” value is listed as 172±69 rotations/hour. The “nerve growth into the lesion site (histology)” value in assay [2] is on record as “prolific nerve growth”.

Regarding `O=C1NCC(=O)N2CCC[C@@H]12` [cPG, cyclic Prolyl Glycine], the “number of contralateral rotations/hour” value in assay [1] is 154±64 rotations/hour. Besides, in assay [2], the “nerve growth into the lesion site (histology)” value is recorded as “most prolific nerve growth”.
